Patent US6569638B1, “Method for screening compounds for the treatment of neoplasia” (Cell Pathways, Inc, priority 2000, dated 2003)

What was measured:
[1] = Toxicity study in dogs (capsules); type: in vivo
From the text: Thus, on a single-dose basis, Compound B is not acutely toxic.

[2] = tested on: JNK1 in SW480 colon cancer cells; assay: JNK1 immunoprecipitation in vitro kinase assay with GST-c-Jun(1-79); type: cell-based, human; conditions: SW480 cells, one hour; sulindac sulfide 50-500 μM, exisulind 100-600 μM, Compound A 0.1-5 μM, Compound B 1-50 μM
Description: The cells were lysed, JNK1 immunoprecipitated with an anti-JNK1 antibody, and the immunoprecipitate (“IP”) assayed for in vitro kinase activity with GST-c-Jun(1-79) as the substrate. The experiments were repeated three times with similar results. Fold activation was measured using a Phosphor Imager.
FIG. 1B: SW480 cells were treated with Compound A (1 μM) for the indicated time periods and in vitro JNK1 kinase activity was determined as described above.
FIG. 2A SW480 cells were treated with either DMSO (−) or Compound A, 0.1 μM; dbcGMP, 500 μM; YC-1, 50 μM; MY-5445, 50 μM; dipyridamole, 10 μM or dbcAMP, 500 μM for one hour. The cells were lysed, JNK1 immunoprecipitated, and the IP assayed for in vitro kinase activity as described in FIG. 1A.
FIG. 2B SW480 cells were pre-treated with either DMSO, KT5720 (2 μM) or Rp-8-pCPT-cGMPS (2 μM) for 2 hours and then treated with Compound B (0, 1 or 10 μM) for one hour. The cells were lysed and assayed for JNK1 activation in the IP as described above.
These concentrations were chosen since they provided optimal induction of apoptosis. Endogenous JNK1 was immunoprecipitated with anti-JNK1 antibody and in vitro kinase assays were performed with GST-c-Jun(1-79) as the substrate. […]
However, the precise role of PKG in signal transduction pathways is not known. […] As a control, KT5720 was used as a protein kinase A (“PKA”)-specific inhibitor. SW480 cells were treated with either DMSO, KT5720 (2 μM) or Rp-8-pCPT-cGMPS (2 μM) for 2 hours and then treated with either DMSO or Compound B (1 or 10 μM) for one hour. Cell extracts were collected and assayed for JNK1 activation.

[3] = tested on: SW-480 colon adenocarcinoma cells; assay: DNA fragmentation (Cell Death Detection ELISA); type: cell-based, human
Description: Samples are then analyzed.

[4] = tested on: caspase-3 in SW480 cells; assay: Caspase-3 activity with Ac-DEVD-AFC substrate; type: cell-based, human; conditions: 24 hours, sulindac sulfide 200 μM, exisulind 600 μM, Compound A 1 μM, Compound B 10 μM
Description: The cells were lysed and the extracts assayed for caspase-3 activity using Ac-DEVD-AFC as the substrate, in the presence or absence of the caspase-3 inhibitor Ac-DEVD-CHO. Caspase-3 activity was calculated by subtracting the AFC fluorescence (excitation; 400 nm, emission; 505 nm) in the presence of Ac-DEVD-CHO from the AFC fluorescence in the absence of Ac-DEVD-CHO.
Protein extracts were then prepared and caspase-3 activity was measured with Ac-DEVD-AFC as the substrate, in the presence or absence of the caspase-3 inhibitor Ac-DEVD-CHO. […] Similar findings were obtained with HCT116 and HT29 cells (data not shown).

[5] = molecular target: T1, GST-cGB-PDE5 fusion protein (cGMP binding sites of human PDE5A) (Homo sapiens, UniProt O76074); assay: cGMP binding assay (3H-cGMP competition); conditions: 3H-cGMP 2 μM, 22° C., 1 hour
T1 construct: made in house; host or cells: E. coli BL21 (DE3)
T1 sequence (O76074 46-539 limits assumed): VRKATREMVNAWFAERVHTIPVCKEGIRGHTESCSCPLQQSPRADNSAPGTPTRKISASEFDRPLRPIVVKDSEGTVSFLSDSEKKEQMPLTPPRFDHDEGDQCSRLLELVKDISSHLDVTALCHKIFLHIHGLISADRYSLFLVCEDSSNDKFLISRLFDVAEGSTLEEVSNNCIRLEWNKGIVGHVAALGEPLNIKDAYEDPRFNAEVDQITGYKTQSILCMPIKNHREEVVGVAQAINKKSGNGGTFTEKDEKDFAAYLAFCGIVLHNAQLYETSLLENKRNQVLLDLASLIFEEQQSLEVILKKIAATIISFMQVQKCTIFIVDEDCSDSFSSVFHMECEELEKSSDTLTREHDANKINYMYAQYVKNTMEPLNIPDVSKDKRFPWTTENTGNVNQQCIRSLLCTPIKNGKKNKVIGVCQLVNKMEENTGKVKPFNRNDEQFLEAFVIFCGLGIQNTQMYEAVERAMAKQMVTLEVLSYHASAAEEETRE

[6] = tested on: adenomatous polyposis coli polyps; assay: Clinical prevention trial of polyp formation in APC patients; type: in vivo, human
From the text: The first clinical trial involved patients with APC using exisulind. In that study, each patient had already had his/her colon removed, except for a small section of colon adjacent the rectum (where the small intestine was attached) to preserve rectal function. However, such a patient commonly forms polyps in the small remaining colonic section, which polyps require periodic removal (e.g., by electrocautery).
That trial where exisulind was selected was a prevention trial designed to evaluate the anti-neoplastic characteristics of the drug by comparing the cumulative number of new polyps formed over twelve months by the drug and placebo groups. Eligible patients were those who form between 9 and 44 polyps per year. Patients were fully ablated (had all polyps removed) at the start of the study, at the end of 6 months and at the end of 12 months. The study enrolled thirty-four eligible patients. […] Based on the median number of polyps produced in the first six months of the study, patients treated with exisulind developed approximately one-third the number of polyps as patients treated with placebo (median values 9 polyps/year and 26 polyps/year, respectively; p=0.013). […]

[7] = tested on: PKG in HCT116 colon cancer cells; assay: PKG assay of drug-treated cell lysates; type: cell-based, human; conditions: HCT116 cells (β-catenin mutation, no APC mutation)
From the text: To test the effect of cGMP-specific PDE inhibition on neoplasia containing the β-catenin mutation, HCT116 colon cancer cells were employed. HCT116 is known to contain the β-catenin mutation, but is known not to contain the APC mutation.
The same procedure is used to grow the HCT116 cells as is used in the SW480 procedure described above. In this experiment, only exisulind and controls were used.

Row | SMILES | oral LD50 [1] | signs of toxicity ([1]; capsules, single 1000 mg/kg) | signs of drug-related effects ([1]; single dose and seven consecutive doses of 1000 mg/kg/day) | JNK1 activation [2] | EC50 [3] [µM] | caspase-3 activation [4] | competition with cGMP for the cGMP binding sites of GST-cGB-PDE5 [5] | median number of polyps ([6]; entire 12 months of the study) [polyps/year] | median number of polyps ([6]; first six months of the study) [polyps/year] | PKG activity relative to control [7]
1 | CC1=C(CC(=O)NCc2ccccc2)c2cc(F)ccc2/C1=C\c1ccncc1.Cl [Compound B, (Z)-5-fluoro-2-methyl-(4-pyridylidene)-3-(N-benzyl)indenylacetamide hydrochloride] | greater than 1000 mg/kg | no signs of toxicity | At no time in either dosing phase were any obvious signs of drug-related effects observed | activated JNK1 | 15 | led to activation of caspase-3 | None of the PDE5 inhibitors showed any competition with cGMP | – | – | –
2 | CC1=C(CC(=O)O)c2cc(F)ccc2/C1=C\c1ccc(S(C)(=O)=O)cc1 [exisulind, 5-fluoro-2-methyl-1-(p-methylsulfonylbenzylidene)-3-indenylacetic acid] | – | – | – | activated JNK1 | – | led to activation of caspase-3 | None of the PDE5 inhibitors showed any competition with cGMP | 18 | 9 | phosphorylated to a greater extent than the corresponding controls
